According to paper PMC7444661 (Journal of medicinal chemistry, 2019):

How the values were obtained:
[1] = biological target: PDE4D7-S129(wt) (Homo sapiens, UniProt Q08499, S715A/S717A); assay: PDE4 coupled enzyme assay of cAMP hydrolysis, PDE4D7-S129; type: biochemical; settings: mean ± SD
[2] = biological target: T1, PDE4D7-S129D (Homo sapiens, UniProt Q08499, S190D/S715A/S717A); assay: PDE4 coupled enzyme assay of cAMP hydrolysis, PDE4D7-S129D; type: biochemical; settings: mean ± SD
[3] = biological target: PDE4B1-S133D (Homo sapiens, UniProt Q07343, S133D/S659A/S661A); assay: PDE4 coupled enzyme assay of cAMP hydrolysis, PDE4B1-S133D; type: biochemical; settings: mean ± SD
PDE4B1-S133D, sequence (Q07343 whole entry S133D/S659A/S661A): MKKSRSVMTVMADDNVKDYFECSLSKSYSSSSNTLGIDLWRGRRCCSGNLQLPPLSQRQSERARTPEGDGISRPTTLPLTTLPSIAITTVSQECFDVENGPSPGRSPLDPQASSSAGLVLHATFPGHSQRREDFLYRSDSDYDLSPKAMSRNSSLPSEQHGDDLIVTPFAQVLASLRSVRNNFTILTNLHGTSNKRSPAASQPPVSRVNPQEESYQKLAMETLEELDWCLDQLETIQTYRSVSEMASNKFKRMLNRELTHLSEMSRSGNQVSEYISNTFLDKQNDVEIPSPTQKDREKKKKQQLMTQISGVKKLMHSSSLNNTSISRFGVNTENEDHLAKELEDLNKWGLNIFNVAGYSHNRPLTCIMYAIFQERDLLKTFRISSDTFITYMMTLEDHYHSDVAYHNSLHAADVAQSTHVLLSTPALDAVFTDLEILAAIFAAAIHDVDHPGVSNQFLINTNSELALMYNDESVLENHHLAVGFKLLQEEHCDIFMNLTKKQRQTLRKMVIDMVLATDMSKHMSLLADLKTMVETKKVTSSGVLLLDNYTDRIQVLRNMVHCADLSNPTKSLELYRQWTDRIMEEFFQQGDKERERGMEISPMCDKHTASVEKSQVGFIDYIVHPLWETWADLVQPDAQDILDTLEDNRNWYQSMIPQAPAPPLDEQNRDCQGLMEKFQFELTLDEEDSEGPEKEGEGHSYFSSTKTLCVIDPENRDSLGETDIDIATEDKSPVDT

[4] = Metabolite identification in human hepatocytes; type: in vitro ADME; settings: compound 23 incubated 4 hour with human hepatocytes
[5] = Metabolite identification in rat hepatocytes; type: in vitro ADME, male Wistar rats; settings: compound 23 incubated 4 hour with rat hepatocytes
[6] = tested on: mice; assay: Mouse novel object recognition after 24-hour delay; type: in vivo, Male ICR mice; settings: mouse NOR
[7] = biological target: PDE4D-cat (Homo sapiens, UniProt Q08499, S715A/S717A); assay: PDE4 coupled enzyme assay of cAMP hydrolysis, PDE4D-cat; type: biochemical; settings: mean ± SD
PDE4D-cat, sequence (Q08499 380-743 S715A/S717A): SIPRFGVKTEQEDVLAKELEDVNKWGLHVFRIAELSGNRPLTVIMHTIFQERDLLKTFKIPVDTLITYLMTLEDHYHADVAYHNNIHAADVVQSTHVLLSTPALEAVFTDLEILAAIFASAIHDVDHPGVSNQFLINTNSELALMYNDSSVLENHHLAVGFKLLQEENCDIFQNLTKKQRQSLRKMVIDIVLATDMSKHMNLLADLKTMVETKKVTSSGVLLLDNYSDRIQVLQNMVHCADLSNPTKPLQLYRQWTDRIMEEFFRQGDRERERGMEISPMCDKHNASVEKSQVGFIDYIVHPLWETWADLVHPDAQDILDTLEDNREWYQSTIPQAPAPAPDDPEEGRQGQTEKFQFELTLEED

[8] = tested on: rats; assay: Dose range finding toxicology, rats; type: in vivo; settings: oral dose of 100 mg/kg
[9] = tested on: dog; assay: Safety pharmacology, cardiovascular function, dog; type: in vivo; settings: up to a maximum oral dose of 100 mg/kg
[10] = tested on: rats; assay: Safety pharmacology, CNS and pulmonary, rats; type: in vivo; settings: up to a maximum oral dose of 60 mg/kg
[11] = tested on: PDE1-11; assay: Counter assays against PDE1-11; type: biochemical; settings: read-out: off target IC50 against PDE1-11; BPS Bioscience, all assays
[12] = tested on: ferrets; assay: Emesis in ferrets; type: in vivo; settings: oral doses up to 30 mg/kg
[13] = tested on: FMR1 knockout mice; settings: cited from earlier work
[14] = Liver microsome stability; type: in vitro ADME, dog, mouse, rat and monkey; settings: human
[15] = biological target: PDE4D3-S54D (Homo sapiens, UniProt Q08499, S190D/S715A/S717A); assay: PDE4 coupled enzyme assay of cAMP hydrolysis, PDE4D3-S54D; type: biochemical; settings: mean ± SD
PDE4D3-S54D, sequence (Q08499 1-673 isoform Q08499-2 S54D/S579A/S581A): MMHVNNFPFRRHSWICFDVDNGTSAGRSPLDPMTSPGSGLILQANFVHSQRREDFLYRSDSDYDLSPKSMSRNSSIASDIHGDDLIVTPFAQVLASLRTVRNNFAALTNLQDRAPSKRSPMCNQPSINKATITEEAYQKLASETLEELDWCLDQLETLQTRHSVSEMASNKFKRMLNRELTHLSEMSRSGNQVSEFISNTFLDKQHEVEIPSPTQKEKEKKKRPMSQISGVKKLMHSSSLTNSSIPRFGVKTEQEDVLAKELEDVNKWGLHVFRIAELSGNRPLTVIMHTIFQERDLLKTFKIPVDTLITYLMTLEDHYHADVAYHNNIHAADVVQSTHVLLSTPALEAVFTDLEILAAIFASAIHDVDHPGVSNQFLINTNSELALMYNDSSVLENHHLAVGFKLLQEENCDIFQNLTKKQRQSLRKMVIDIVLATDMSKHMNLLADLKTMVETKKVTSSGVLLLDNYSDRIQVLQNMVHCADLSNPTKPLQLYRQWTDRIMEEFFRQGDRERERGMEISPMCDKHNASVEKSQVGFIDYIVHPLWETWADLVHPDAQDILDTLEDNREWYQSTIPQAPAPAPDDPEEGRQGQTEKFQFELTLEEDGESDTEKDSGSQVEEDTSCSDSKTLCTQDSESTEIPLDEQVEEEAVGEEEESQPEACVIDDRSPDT

[16] = biological target: PDE4D2 (Homo sapiens, UniProt Q08499, S715A/S717A); assay: PDE4 coupled enzyme assay of cAMP hydrolysis, PDE4D2; type: biochemical; settings: mean ± SD
PDE4D2, sequence (Q08499 303-809 S715A/S717A): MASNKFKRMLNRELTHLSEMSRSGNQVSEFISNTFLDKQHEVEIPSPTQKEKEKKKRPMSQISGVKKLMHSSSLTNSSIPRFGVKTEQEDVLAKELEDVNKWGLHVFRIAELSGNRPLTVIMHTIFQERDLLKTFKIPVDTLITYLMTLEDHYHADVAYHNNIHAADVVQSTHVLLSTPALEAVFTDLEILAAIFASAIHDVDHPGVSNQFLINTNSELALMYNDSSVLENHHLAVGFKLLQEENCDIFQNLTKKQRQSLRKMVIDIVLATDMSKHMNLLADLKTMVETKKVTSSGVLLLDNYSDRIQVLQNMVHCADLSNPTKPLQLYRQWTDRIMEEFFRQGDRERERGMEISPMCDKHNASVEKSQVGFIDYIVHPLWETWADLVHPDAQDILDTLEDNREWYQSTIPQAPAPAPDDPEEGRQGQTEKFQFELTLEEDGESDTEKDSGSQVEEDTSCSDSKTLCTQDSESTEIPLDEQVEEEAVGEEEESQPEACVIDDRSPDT

[17] = tested on: cynomolgus monkeys; assay: Emesis in cynomolgus monkeys; type: in vivo; settings: oral doses up to 50 mg/kg
[18] = tested on: rats and dogs; assay: Toxicological studies of 28 and 90 days duration; type: in vivo
[19] = tested on: mice; assay: Anesthesia duration test; type: in vivo, Male ICR mice; settings: mouse
[20] = tested on: bacteria; assay: Mutagenicity in bacteria
[21] = tested on: dogs; assay: Dose range finding toxicology, dogs; type: in vivo; settings: 100 mg/kg
[22] = tested on: humanized PDE4D mice; settings: cited from earlier work
[23] = Pharmacokinetics in mice; type: in vivo; settings: oral
[24] = biological target: T1, PDE4D7-S129D; assay: PDE4D7-S129D inhibition in the presence of bovine serum albumin; settings: bovine serum albumin at 1 mg/mL

T1 sequence (Q08499 1-748 isoform Q08499-11 S129D/S654A/S656A): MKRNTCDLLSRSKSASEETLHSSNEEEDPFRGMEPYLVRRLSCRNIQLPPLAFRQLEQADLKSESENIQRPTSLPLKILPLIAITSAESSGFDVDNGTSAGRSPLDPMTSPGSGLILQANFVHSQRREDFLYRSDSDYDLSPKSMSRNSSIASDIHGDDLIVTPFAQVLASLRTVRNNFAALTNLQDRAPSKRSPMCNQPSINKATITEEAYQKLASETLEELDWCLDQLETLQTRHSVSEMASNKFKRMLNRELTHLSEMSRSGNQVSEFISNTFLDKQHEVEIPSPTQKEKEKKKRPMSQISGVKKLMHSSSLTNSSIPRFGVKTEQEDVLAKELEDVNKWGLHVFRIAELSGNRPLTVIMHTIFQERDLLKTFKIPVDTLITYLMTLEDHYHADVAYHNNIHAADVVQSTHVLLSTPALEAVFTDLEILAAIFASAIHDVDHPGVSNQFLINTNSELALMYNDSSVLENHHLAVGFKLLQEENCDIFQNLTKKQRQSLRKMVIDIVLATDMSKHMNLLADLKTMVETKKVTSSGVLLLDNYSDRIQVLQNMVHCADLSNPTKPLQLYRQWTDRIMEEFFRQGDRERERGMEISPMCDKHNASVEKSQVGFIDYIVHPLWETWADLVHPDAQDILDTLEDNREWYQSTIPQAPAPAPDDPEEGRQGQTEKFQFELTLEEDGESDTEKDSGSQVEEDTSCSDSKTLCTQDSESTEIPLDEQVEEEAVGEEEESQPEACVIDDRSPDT
PDE4D7-S129(wt), sequence (Q08499 1-748 isoform Q08499-11 S654A/S656A): as the sequence (Q08499 1-748 isoform Q08499-11 S129D/S654A/S656A) above, with D129S counted along it

## CCc1cc(Cc2ccc(CC(=O)NCCO)cc2)nc(-c2cccc(Cl)c2)n1 [Compound 29, 2-(4-((2-(3-Chlorophenyl)-6-ethylpyrimidin-4-yl)methyl)phenyl)-N-(2-hydroxyethyl)acetamide]
[1]
  Hill Slope PDE4D7-S129(wt) dimer basal: 0.50 ± 0.1
[2]
  Hill Slope PDE4D7-S129D dimer activated: 0.66± 0.03
[3]
  Hill Slope PDE4B1-S133D dimer activated: 0.37 ± 0.04

## CCc1cc(Cc2ccc(CC(=O)O)cc2)nc(-c2cccc(Cl)c2)n1 [Compound M6]
[4]
  percentage of metabolite present: <1%
[5]
  percentage of metabolite present: 29.1%

## COc1ccc(C2CNC(=O)C2)cc1OC1CCCC1 (stereo not drawn) [rolipram, reference compound]
[6]; SC
  dose that significantly improved novel object discrimination: 0.1 mg/kg

## O=C(O)Cc1ccc(Cc2cc(-c3cccc(Cl)c3)nc(C(F)(F)F)c2)cc1 [Compound 28, 2-(4-((2-(3-chlorophenyl)-6-(trifluoromethyl)pyridin-4-yl)methyl)phenyl)acetic acid]
[7]
  Hill Slope PDE4D-cat monomer: 1.2 ± 0.10
[8]
  dose range finding toxicology findings: inappetence and weight loss
[9]
  effect on cardiovascular function: no effect
[10]
  adverse CNS or pulmonary effects: no adverse CNS or pulmonary effects
[11]
  IC50: > 10 µM
[12]
  emesis: did not cause emesis
[13]; FMR1 knockout mice
  maturation of dendritic spines on layer 2/3 pyramidal cells: promotes
[13]
  behavior of adult FMR1 knockout mice: normalizes
[14]; rat, mouse and dog liver microsomes, after 30 min incubation
  remaining in liver microsomes: 88-100%
[6]; oral (PO), versus vehicle
  doses that significantly improved novel object discrimination: above 0.3 mg/kg
[1]
  Hill Slope PDE4D7-S129(wt) dimer basal: 0.58 ± 0.11
[15]
  Hill Slope PDE4D3-S54D dimer activated: 0.68 ± 0.14
[16]
  Hill Slope PDE4D2 monomer: 0.60± 0.16
[2]
  Hill Slope PDE4D7-S129D dimer activated: 0.55± 0.12
[17]
  emesis: nor did it cause emesis
[3]
  Hill Slope PDE4B1-S133D dimer activated: 0.92 ± 0.21
[18]
  vascular toxicity and microscopic findings: did not reveal vascular toxicity nor any other microscopic findings
[19]; doses of 3, 10 and 30 mg/kg PO
  effect on anesthesia duration: no significant effect
[19]; doses up to 30 mg/kg
  change in anesthesia duration: no change
[20]
  mutagenicity in bacteria: not mutagenic
[21]
  dose range finding toxicology findings: emesis, tremor and weight loss
[22]
  potency in humanized PDE4D mice as compared to wild-type mice: increased potency
[22]; mice
  brain cAMP: increases
  late phase of hippocampal long-term potentiation (LTP): augments
  phosphorylation of CREB: increases
  production of brain-derived neurotrophic factor (BDNF) in hippocampus: increases
  short and long term memory: improves

## CCc1cc(Cc2ccc(CC(N)=O)cc2)nc(-c2cccc(Cl)c2)n1 [Compound 23, 2-(4-((2-(3-Chlorophenyl)-6-ethylpyrimidin-4-yl)methyl)phenyl)acetamide]
[14]; dog, mouse, rat and monkey liver microsomes, at 30 min
  parent remaining in liver microsomes: 54-90%
[23]
  extended absorption: 4 to 8 h
[24]
  shift in IC50 for PDE4D7-S129D inhibition in the presence of BSA: no shift
